Measurements: ChEMBL document CHEMBL1132396, “Potent, orally bioavailable somatostatin agonists: good absorption achieved by urea backbone cyclization” (Bioorg Med Chem Lett, 1999)
Several values for one entry are separate records, joined by “and”; a condition that tells them apart may be missing. Identical values can stand only once. Each block holds one compound with its values, some of them ahead of it.

Key:
[1] = target: T1, Somatostatin receptor type 2 (Homo sapiens, UniProt P30874); test: In vitro binding affinity was evaluated against human Somatostatin receptor type 2 (hSSTR-2)
Rattus norvegicus = organism: Rattus norvegicus; test: Compound tested for the inhibition of growth hormone release was determined using primary cultures of rat anterior pituitary cells; format: functional, cell-based; conditions: Pituitary gland cell
[2] = Bioavailability; format: ADME, organism-based, Canis lupus familiaris; conditions: beagle, dog, in vivo
[3] = target: T1, Somatostatin receptor type 2; test: In vitro binding affinity was evaluated against human Somatostatin receptor type 2 in experiment 1
[4] = target: T1, Somatostatin receptor type 2; test: In vitro binding affinity was evaluated against human Somatostatin receptor type 2 in experiment 2
[5] = target: Somatostatin receptor type 5 (Homo sapiens, UniProt P35346); test: In vitro binding affinity was evaluated against human Somatostatin receptor type 5 (hSSTR-5)
[6] = target: Somatostatin receptor type 3 (Homo sapiens, UniProt P32745); test: In vitro binding affinity was evaluated against human Somatostatin receptor type 3 (hSSTR-3)
[7] = target: Somatostatin receptor type 2 (Mus musculus, UniProt P30875); test: In vitro binding affinity was evaluated against mouse Somatostatin receptor type 2 (mSSTR-2)
[8] = Cmax value after 1 mpk peroral administration to beagles; format: ADME, organism-based, Canis lupus familiaris; parameters: dose 1 mpk, route oral; conditions: Beagle, dog, in vivo, po, 1 mg/kg
[9] = Area under curve after 1 mpk peroral administration to beagles; format: ADME, Canis lupus familiaris; conditions: Beagle, dog, in vivo, po, 1 mg/kg
[10] = Bioavailability after 1 mpk peroral administration to beagles; format: ADME, organism-based, Canis lupus familiaris; conditions: Beagle, dog, in vivo, po, 1 mg/kg
[11] = Bioavailability after 2 mpk peroral administration to beagles; format: ADME, organism-based, Canis lupus familiaris; conditions: Beagle, dog, in vivo, po, 2 mg/kg
[12] = target: Somatostatin receptor type 1 (Homo sapiens, UniProt P30872); test: In vitro binding affinity was evaluated against human Somatostatin receptor type 1 (hSSTR-1)
[13] = Area under curve after 2 mpk peroral administration to beagles; format: ADME, Canis lupus familiaris; conditions: Beagle, dog, in vivo, po, 2 mg/kg
[14] = Cmax value after 2 mpk peroral administration to beagles; format: ADME, organism-based, Canis lupus familiaris; parameters: dose 2 mpk, route oral; conditions: Beagle, dog, in vivo, po, 2 mg/kg
[15] = target: Somatostatin receptor type 4 (Homo sapiens, UniProt P31391); test: In vitro binding affinity was evaluated against human Somatostatin receptor type 4 (hSSTR-4)
Somatostatin receptor type 4, sequence (P31391 whole entry): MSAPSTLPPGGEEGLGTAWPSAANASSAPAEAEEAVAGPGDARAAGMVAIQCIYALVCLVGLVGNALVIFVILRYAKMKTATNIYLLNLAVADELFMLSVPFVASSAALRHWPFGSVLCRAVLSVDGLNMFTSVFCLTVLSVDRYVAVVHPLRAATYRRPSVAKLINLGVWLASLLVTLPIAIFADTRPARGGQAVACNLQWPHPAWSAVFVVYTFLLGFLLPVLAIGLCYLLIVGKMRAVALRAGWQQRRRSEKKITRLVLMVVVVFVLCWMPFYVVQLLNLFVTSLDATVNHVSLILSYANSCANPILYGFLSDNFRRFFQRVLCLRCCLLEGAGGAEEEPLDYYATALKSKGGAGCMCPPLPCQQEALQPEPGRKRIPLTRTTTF

Somatostatin receptor type 2 (Mus musculus, UniProt P30875), sequence (P30875 whole entry): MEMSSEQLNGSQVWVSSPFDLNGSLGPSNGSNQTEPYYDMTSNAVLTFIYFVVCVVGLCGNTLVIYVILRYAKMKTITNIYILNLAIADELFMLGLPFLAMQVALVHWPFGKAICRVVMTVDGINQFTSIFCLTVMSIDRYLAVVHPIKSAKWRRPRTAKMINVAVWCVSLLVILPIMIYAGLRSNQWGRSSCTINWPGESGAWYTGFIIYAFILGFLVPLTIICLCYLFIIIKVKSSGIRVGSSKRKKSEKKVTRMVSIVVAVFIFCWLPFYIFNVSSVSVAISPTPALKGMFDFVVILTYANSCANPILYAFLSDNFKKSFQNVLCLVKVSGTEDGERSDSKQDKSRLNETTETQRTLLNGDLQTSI
T1 sequence (P30874 whole entry): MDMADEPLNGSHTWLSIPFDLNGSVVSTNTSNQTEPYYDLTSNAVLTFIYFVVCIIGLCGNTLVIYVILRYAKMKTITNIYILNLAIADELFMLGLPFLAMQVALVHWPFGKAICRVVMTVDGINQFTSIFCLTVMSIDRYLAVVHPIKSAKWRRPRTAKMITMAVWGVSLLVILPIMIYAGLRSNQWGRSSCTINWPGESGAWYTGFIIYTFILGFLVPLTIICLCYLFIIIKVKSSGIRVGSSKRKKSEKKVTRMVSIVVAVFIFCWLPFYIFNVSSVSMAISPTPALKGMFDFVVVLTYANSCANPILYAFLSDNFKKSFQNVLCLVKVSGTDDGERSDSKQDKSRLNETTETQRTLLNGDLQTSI
Somatostatin receptor type 3, sequence (P32745 whole entry): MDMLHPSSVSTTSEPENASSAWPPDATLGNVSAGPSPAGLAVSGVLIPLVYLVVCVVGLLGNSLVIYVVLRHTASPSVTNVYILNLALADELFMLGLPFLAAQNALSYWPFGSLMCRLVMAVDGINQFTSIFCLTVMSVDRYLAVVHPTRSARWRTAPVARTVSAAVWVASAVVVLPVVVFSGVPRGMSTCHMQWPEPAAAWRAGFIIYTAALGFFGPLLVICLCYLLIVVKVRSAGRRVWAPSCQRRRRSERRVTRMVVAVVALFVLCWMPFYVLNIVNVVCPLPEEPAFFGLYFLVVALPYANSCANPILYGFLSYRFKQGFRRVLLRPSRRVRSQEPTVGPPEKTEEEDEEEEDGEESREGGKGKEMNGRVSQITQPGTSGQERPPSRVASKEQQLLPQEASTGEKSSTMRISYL
Somatostatin receptor type 1, sequence (P30872 whole entry): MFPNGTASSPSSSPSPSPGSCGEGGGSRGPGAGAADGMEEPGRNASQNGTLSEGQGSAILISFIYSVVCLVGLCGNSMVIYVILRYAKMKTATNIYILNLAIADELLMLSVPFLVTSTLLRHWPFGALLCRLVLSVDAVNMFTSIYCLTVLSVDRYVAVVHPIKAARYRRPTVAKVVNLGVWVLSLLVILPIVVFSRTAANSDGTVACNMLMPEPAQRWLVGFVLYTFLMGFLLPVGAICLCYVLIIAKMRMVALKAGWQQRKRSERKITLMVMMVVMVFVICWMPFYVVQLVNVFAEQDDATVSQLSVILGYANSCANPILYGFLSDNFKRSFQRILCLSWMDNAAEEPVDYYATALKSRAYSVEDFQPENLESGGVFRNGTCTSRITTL

Cmax [8]: 103 ng/mL | AUC [9]: 333 ng·h/mL | Ki [1]: 2.2 nM
SMILES: C[C@@H](c1c[nH]c2ccccc12)[C@@H](NC(=O)N(C)CCCc1ccccc1)C(=O)N[C@H](CCCCN)C(=O)OC(C)(C)C

bioavailability [10]: 1% | Cmax [8]: 86 ng/mL | AUC [9]: 314 ng·h/mL | Ki [1]: 1 nM
SMILES: C[C@@H](c1c[nH]c2ccccc12)[C@@H](NC(=O)NCCCc1ccccc1)C(=O)N[C@H](CCCCN)C(=O)OC(C)(C)C

bioavailability [11]: 5% | Ki [12]: 712 nM | AUC [13]: 837 ng·h/mL | Ki [5]: 284 nM | Ki [1]: 3.6 nM | Cmax [14]: 350 ng/mL | Ki [6]: 1290 nM | Ki [15]: 83 nM
SMILES: C[C@@H](c1c[nH]c2ccccc12)[C@H](C(=O)N[C@H](CCCCN)C(=O)OC(C)(C)C)N1CCN(CCCc2ccccc2)C1=O

Ki [1]: 14 nM
SMILES: C[C@@H](c1c[nH]c2ccccc12)[C@H](C(=O)N[C@H](CCCCN)C(=O)OC(C)(C)C)N1CCN(Cc2ccccc2)C1=O

Ki [1]: 80 nM
SMILES: C[C@@H](c1c[nH]c2ccccc12)[C@H](C(=O)N[C@H](CCCCN)C(=O)OC(C)(C)C)N1CCN(c2cccc(-c3ccccc3)c2)C1=O

Ki [1]: 1.4 nM
SMILES: C[C@@H](c1c[nH]c2ccccc12)[C@H](C(=O)N[C@H](CCCCN)C(=O)OC(C)(C)C)N1CCN(C2CCCN(c3ccccc3)C2)C1=O (stereo partly drawn)

bioavailability [2]: 3% | Ki [1]: 1.3 nM
SMILES: C[C@@H](c1c[nH]c2ccccc12)[C@H](C(=O)N[C@H](CCCCN)C(=O)OC(C)(C)C)N1CCN(Cc2ccc(C(F)(F)F)cc2)C1=O

Ki [1]: 12 nM
SMILES: CC(CCc1ccccc1)N1CCN([C@@H](C(=O)N[C@H](CCCCN)C(=O)OC(C)(C)C)[C@@H](C)c2c[nH]c3ccccc23)C1=O (stereo partly drawn)

Ki [1]: 47 nM
SMILES: C[C@@H](c1c[nH]c2ccccc12)[C@H](C(=O)N[C@H](CCCCN)C(=O)OC(C)(C)C)N1CCN(CCc2ccccc2)C1=O

Ki [3]: 40 nM | Ki [4]: 6.3 nM
SMILES: C[C@@H](c1c[nH]c2ccccc12)[C@H](C(=O)N[C@H](CCCCN)C(=O)OC(C)(C)C)N1CCN(C2CCC(c3ccccc3)CC2)C1=O (stereo partly drawn)

Ki [1]: 5.9 nM
SMILES: CC(CCN1CCN([C@@H](C(=O)N[C@H](CCCCN)C(=O)OC(C)(C)C)[C@@H](C)c2c[nH]c3ccccc23)C1=O)c1ccccc1 (stereo partly drawn)

The next lines start with the compound.

SMILES: C[C@@H](c1c[nH]c2ccccc12)[C@H](C(=O)N(C)C[C@H]1OC[C@H](N)CO1)N1CCN(CCCc2ccccc2)C1=O
Ki [1]: 11 nM

SMILES: C[C@@H](c1c[nH]c2ccccc12)[C@H](C(=O)N(C)C[C@H]1OC[C@H](N)CO1)N1CCN(C2CCCN(c3ccccc3)C2)C1=O (stereo partly drawn)
IC50 (Rattus norvegicus): 70 nM | bioavailability [2]: 15% | Ki [3]: 2.1 nM | Ki [4]: 14 nM | Ki [5]: 1400 nM | Ki [6]: > 10000 nM

SMILES: COC(=O)[C@@H](CCCCN)NC(=O)[C@@H](Cc1c[nH]c2ccccc12)NC(=O)N1CCC2(CCc3ccccc32)CC1
Ki [7]: 2 nM

SMILES: C[C@@H](c1c[nH]c2ccccc12)[C@H](C(=O)NC[C@H]1OC[C@H](N)CO1)N1CCN(Cc2ccc(Cl)c(Cl)c2)C1=O
bioavailability [2]: 21% | Ki [1]: 7.3 nM

SMILES: C[C@@H](c1c[nH]c2ccccc12)[C@H](C(=O)NC[C@H]1OC[C@H](N)CO1)N1CCN(CCCn2c(O)nc3ccccc32)C1=O
Ki [1]: 40 nM

SMILES: C[C@@H](c1c[nH]c2ccccc12)[C@H](C(=O)NC[C@H]1OC[C@H](N)CO1)N1CCN(CCC(c2ccccc2)c2ccccc2)C1=O
Ki [1]: 8.5 nM and 1.1 nM

SMILES: C[C@@H](c1c[nH]c2ccccc12)[C@H](C(=O)NC[C@H]1OC[C@H](N)CO1)N1CCN(CCc2cccc3ccccc23)C1=O
Ki [1]: 122 nM

SMILES: C[C@@H](c1c[nH]c2ccccc12)[C@H](C(=O)NC[C@H]1OC[C@H](N)CO1)N1CCN(CCCc2ccccc2)C1=O
Ki [1]: 18 nM

SMILES: NCCCCCNC(=O)[C@@H](Cc1c[nH]c2ccccc12)NC(=O)N1CCC2(CCc3ccccc32)CC1
Ki [7]: 10 nM

SMILES: C[C@@H](c1c[nH]c2ccccc12)[C@H](C(=O)N(C)C[C@H]1OC[C@H](N)CO1)N1CCN(CCC(c2ccccc2)c2ccccc2)C1=O
Ki [1]: 4.6 nM

SMILES: CN(C(=O)N1CCC2(CCc3ccccc32)CC1)[C@H](Cc1c[nH]c2ccccc12)C(=O)NCCCCCN
Ki [7]: > 10 nM

SMILES: COC(=O)[C@@H](CCCCN)NC(=O)[C@@H](Cc1c[nH]c2ccccc12)OC(=O)N1CCC2(CCc3ccccc32)CC1
Ki [7]: 10 nM
